Measurements: patent US7381824B2 (Agouron Pharmaceuticals, Inc., priority 2003, dated 2008)
pKi: −log10 of the molar value.

Tests used:
[1] = test system: human umbilical vein endothelial cells (HUVEC); assay: HUVEC+VEGF proliferation assay; type: cell-based; conditions: Homo sapiens; VEGF-stimulated HUVEC proliferation, MTT, 72 hours
Method: HUVEC+VEGF Proliferation Assay
This assay determines the ability of a test compound to inhibit the growth factor-stimulated proliferation of human umbilical vein endothelial cells (“HUVEC”). HUVEC cells (passage 3-4, Clonetics, Corp.) were thawed into EGM2 culture medium (Clonetics Corp) in T75 flasks. Fresh EGM2 medium was added to the flasks 24 hours later. Four or five days later, cells were exposed to another culture medium (F12K medium supplemented with 10% fetal bovine serum (FBS), […] endothelial cell growth supplement (ECGS), and 0.1 mg/mL heparin). Exponentially-growing HUVEC cells were used in experiments thereafter. Ten to twelve thousand HUVEC cells were plated in 96-well dishes in […] of rich, culture medium (described above). The cells were allowed to attach for 24 hours in this medium. The medium was then removed by aspiration and […] of starvation media (F12K+1% FBS) was added to each well. After 24 hours, […] of test agent dissolved in 1% DMSO in starvation medium or this vehicle alone was added into each treatment well; the final DMSO concentration was 0.1%. One hour later, […] of VEGF (30 ng/mL) in starvation media was added to all wells except those containing untreated controls; the final VEGF concentration was 6 ng/mL. Cellular proliferation was quantified 72 hours later by MTT dye reduction, at which time cells were exposed for 4 hours MTT (Promega Corp.). Dye reduction was stopped by addition of a stop solution (Promega Corp.) and absorbance at 595 nm was determined on a 96-well spectrophotometer plate reader.

[2] = target: T1, human vascular endothelial growth factor receptor 2 (VEGF-R2) (Homo sapiens, UniProt P35968, DEL940-989/E990V); assay: VEGF-R2 coupled spectrophotometric assay (FLVK, unphosphorylated VEGF-R2D50); type: biochemical; conditions: unphosphorylated VEGF-R2D50 (FLVK)
T1 construct: VEGF-R2D50 contains residues 806-939 and 990-1171; made in house; host or cells: baculovirus/insect cell system
T1 sequence (P35968 with tags, fused parts or gaps DEL940-989/E990V limits assumed): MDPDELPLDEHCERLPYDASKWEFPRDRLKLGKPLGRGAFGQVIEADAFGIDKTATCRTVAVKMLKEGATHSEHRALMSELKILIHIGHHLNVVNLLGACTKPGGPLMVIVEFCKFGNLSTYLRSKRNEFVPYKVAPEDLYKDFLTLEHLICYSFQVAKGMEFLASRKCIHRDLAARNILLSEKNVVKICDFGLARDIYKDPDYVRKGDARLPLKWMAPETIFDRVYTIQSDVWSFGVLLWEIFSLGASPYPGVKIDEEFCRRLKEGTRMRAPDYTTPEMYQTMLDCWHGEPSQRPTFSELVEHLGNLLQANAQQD
Text: This construct determines the ability of a test compound to inhibit tyrosine kinase activity. A construct (VEGF-R2D50) of the cytosolic domain of human vascular endothelial growth factor receptor 2 (VEGF-R2) lacking the 50 central residues of the 68 residues of the kinase insert domain was expressed in a baculovirus/insect cell system. Of the 1356 residues of full-length VEGF-R2, VEGF-R2D50 contains residues 806-939 and 990-1171, and also one point mutation (E990V) within the kinase insert domain relative to wild-type VEGF-R2. Autophosphorylation of the purified construct was performed by incubation of the enzyme at a concentration of […] in the presence of 3 mM ATP and 40 mM MgCl2 in 100 mM HEPES, pH 7.5, containing 5% glycerol and 5 mM DTT, at 4° C. for 2 h. […] See Parast et al., Biochemistry, 37, 16788-16801 (1998).
VEGF-R2 Assay: Coupled Spectrophotometric (FLVK-P) Assay
The production of ADP from ATP that accompanies phosphoryl transfer was coupled to oxidation of NADH using phosphoenolpyruvate (PEP) and a system having pyruvate kinase (PK) and lactic dehydrogenase (LDH). The oxidation of NADH was monitored by following the decrease of absorbance at 340 nm (e340=6.22 cm^−1 mM^−1) using a Beckman DU 650 spectrophotometer. Assay conditions for phosphorylated VEGF-R2D50 (indicated as FLVK-P in the tables below) were the following: 1 mM PEP; […] NADH; 50 units of LDH/mL; 20 units of PK/mL; 5 mM DTT; 5.1 mM poly(E4Y1); 1 mM ATP; and 25 mM MgCl2 in 200 mM HEPES, pH 7.5. Assay conditions for unphosphorylated VEGF-R2D50 (indicated as FLVK in the tables) were the following: 1 mM PEP; […] NADH; 50 units of LDH/mL; 20 units of PK/mL; 5 mM DTT; 20 mM poly(E4Y1); 3 mM ATP; and 60 mM MgCl2 and 2 mM MnCl2 in 200 mM HEPES, pH 7.5. Assays were initiated with 5 to 40 nM of enzyme. K1 values were determined by measuring enzyme activity in the presence of varying concentrations of test compounds. The percent inhibition at 50 nM (% inhibition @ 50 nM) was determined by linear least-squares regression analysis of absorbance as a function of time. The binding inhibitions were fitted to equation as described by Morrison. The data were analyzed using Enzyme Kinetic and Kaleidagraph software.

Row | pKi [2] | Compound | IC50 [1] [nM]
1 |  | CNC(=O)c1c(C)oc2cc(Oc3ccnc4cc(O)ccc34)ccc12 [Example 28, 6-[(7-hydroxyquinoline-4-yl)oxy]-N,2-dimethyl-1-benzofuran-3-carboxamide] | 1 to 10
2 |  | CNC(=O)n1c(C)cc2cc(Nc3ccnc4cc(-c5ccccn5)ccc34)ccc21 [Example 32] | 1 to 10
3 |  | CNC(=O)c1c(C)oc2cc(Oc3ccnc4cc(OCCN5CCCC5)ccc34)ccc12 [Example 35, N,2-dimethyl-6-{[7-(2-pyrrolidin-1-ylethoxy)quinolin-4-yl]oxy}-1-benzofuran-3-carboxamide] | < 1
4 |  | CCCCNC(=O)c1c(C)oc2cc(Oc3ccnc4cc(OC)ccc34)ccc12 [Example 39, N-butyl-6-[(7-methoxyquinolin-4-yl)oxy]-2-methyl-1-benzofuran-3-carboxamide] | < 1
5 |  | COc1ccc2c(Oc3ccc4c(C(=O)Nc5ccccn5)c(C)oc4c3)ccnc2c1 [Example 40, 6-[(7-methoxyquinolin-4-yl)oxy]-2-methyl-N-pyridin-2-yl-1-benzofuran-3-carboxamide] | < 1
6 |  | CCCCNC(=O)c1c(C)oc2cc(Oc3ccnc4cc(O)ccc34)ccc12 [Example 41, N-butyl-6-[(7-hydroxyquinolin-4-yl)oxy]-2-methyl-1-benzofuran-3-carboxamide] | 1 to 10
7 | > 9.00 | Cc1oc2cc(Oc3ccnc4cc(-c5ncccn5)ccc34)ccc2c1C(=O)NC1CC1 [Example 89, N-cyclopropyl-2-methyl-6-[(7-pyrimidin-2-ylquinolin-4-yl)oxy]-1-benzofuran-3-carboxamide] | 
8 | > 9.00 | CNCCOc1ccc2c(Oc3ccc4c(C(=O)NC5CC5)c(C)oc4c3)ccnc2c1 [Example 90, N-cyclopropyl-2-methyl-6-({7-[2-(methylamino)ethoxy]quinolin-4-yl}oxy)-1-benzofuran-3-carboxamide] | 
9 | > 9.00 | CCN(CC)CCOc1ccc2c(Oc3ccc4c(C(=O)NC5CC5)c(C)oc4c3)ccnc2c1 [Example 91, N-cyclopropyl-2-methyl-6-({7-[2-(diethylamino)ethoxy]quinolin-4-yl}oxy)-1-benzofuran-3-carboxamide] | 
10 | > 9.00 | Cc1oc2cc(Oc3ccnc4cc(OCCO)ccc34)ccc2c1C(=O)NC1CC1 [Example 92, N-cyclopropyl-2-methyl-6-({7-[2-hydroxy-ethoxy]quinolin-4-yl}oxy)-1-benzofuran-3-carboxamide] | 
11 | > 9.00 | Cc1oc2cc(Oc3ccnc4cc(OCCBr)ccc34)ccc2c1C(=O)NC1CC1 [Example 93, 6-{[7-(2-bromoethoxy)quinolin-4-yl]oxy}-N-cyclopropyl-2-methyl-1-benzofuran-3-carboxamide] | 
12 | > 9.00 | CCN1CCN(CCOc2ccc3c(Oc4ccc5c(C(=O)NC6CC6)c(C)oc5c4)ccnc3c2)CC1 [Example 94, N-cyclopropyl-2-methyl-6-{7-[2-(4-ethyl-piperazin-1-yl)-ethoxy]quinolin-4-yloxy}-1-benzofuran-3-carboxamide] | 
13 | > 9.00 | Cc1oc2cc(Oc3ccnc4cc(OCCNC(C)C)ccc34)ccc2c1C(=O)NC1CC1 [Example 95, N-cyclopropyl-6-({7-[2-(isopropylamino)ethoxy]quinolin-4-yl}oxy)-2-methyl-1-benzofuran-3-carboxamide] | 
14 | > 9.00 | Cc1oc2cc(Oc3ccnc4cc(OCCNC5CC5)ccc34)ccc2c1C(=O)NC1CC1 [Example 96, N-cyclopropyl-6-({7-[2-(cyclopropylamino)ethoxy]quinolin-4-yl}oxy)-2-methyl-1-benzofuran-3-carboxamide] | 
15 | > 9.00 | COCC(C)NCCOc1ccc2c(Oc3ccc4c(C(=O)NC5CC5)c(C)oc4c3)ccnc2c1 (stereo not shown) [Example 97, N-cyclopropyl-6-[(7-{2-[(2-methoxy-1-methylethyl)amino]ethoxy}quinolin-4-yl)oxy]-2-methyl-1-benzofuran-3-carboxamide] | 
16 | > 9.00 | Cc1oc2cc(Oc3ccnc4cc(OCCNC(C)(C)C)ccc34)ccc2c1C(=O)NC1CC1 [Example 98] | 
